According to article PMC11719397, “Monophthalates of betulinic acid and related pentacyclic triterpenes inhibit efficiently the SOS-mediated nucleotide exchange and impact PI3K/AKT signaling in oncogenic K-RAS4B proteins” (RSC Advances, 2025):
≈ marks a conversion by molar mass, not a printed value. Read-outs that look alike come from different tables or passages of the source.

Columns and labels:
K-RAS4B^G12D = K-RAS4B^G12D (Homo sapiens, UniProt P01116, G12D); assay: biochemical; settings: for IC50: K-RAS4B GDP/GTP exchange, eight data points, at least three determinations
K-RAS4B wild-type = K-RAS4B wild-type (Homo sapiens, UniProt P01116); assay: Nucleotide exchange assay (SOS1-mediated GDP/GTP exchange, GDP-Glo), K-RAS4B wild-type; type: biochemical; settings: K-RAS4B GDP/GTP exchange; eight data points, at least three determinations; (*) single determination
K-RAS4B G12V = K-RAS4B G12V (Homo sapiens, UniProt P01116, G12V); assay: Nucleotide exchange assay (SOS1-mediated GDP/GTP exchange, GDP-Glo), K-RAS4B G12V; type: biochemical; settings: eight data points, at least three determinations, (*) single determination
[1] = K-RAS4B form mostly not given, inactive = IC50 > 100 μM (Fig. 3 legend)

Row | solubility (Solubility) [µM] | IC50 (K-RAS4B wild-type) [µM] | IC50 (K-RAS4B G12V) [µM] | IC50 (K-RAS4B^G12D) [µM] | Compound | inhibition of GDP/GTP exchange (in words) (K-RAS4B^G12D; [1]) | further results
1 | 99 (≈ 65 µg/mL) | 7.18 ± 0.68 | 8.57 ± 1.09 | 26.5 ± 5.9 | CC1(C)CCC23CCC4(C)C5(C)CCC6C(C)(C)C(OC(=O)c7cc(F)c(F)cc7C(=O)O)CCC6(C)C5CC(O)C4(OC2=O)C3C1 (stereo not shown) [Compound 51] |  | 
2 | 394 (≈ 252 µg/mL) | 1.5 ± 0.08 | 2.71 ± 0.39 | 2.22 ± 0.29 | CC1(C)CC[C@]2(C(=O)O)CC[C@]3(C)C(=CC[C@@H]4[C@@]5(C)CC[C@H](OC(=O)c6cc(F)c(F)cc6C(=O)O)C(C)(C)[C@@H]5CC[C@]43C)[C@@H]2C1 [Compound 43] |  | 
3 | 114 (≈ 58.9 µg/mL) | 13.4 ± 2.1 | 10.9 ± 0.6 | 13.7 ± 5.1 | Cn1cnc(Cn2ccc3ccc(CNCc4[nH]c5ccccc5c4C4NC(=O)c5ccc(O)cc54)cc32)c1 (stereo not shown) [Compound 54, BI2852, reference compound] |  | 
4 | 390 (≈ 238 µg/mL) | 1.52 ± 0.5 | 5.62 ± 0.93 | 3.06 ± 0.79 | CC1(C)CC[C@]2(C(=O)O)CC[C@]3(C)C(=CC[C@@H]4[C@@]5(C)CC[C@H](OC(=O)c6sccc6C(=O)O)C(C)(C)[C@@H]5CC[C@]43C)[C@@H]2C1 [Compound 45] |  | 
5 | 421 (≈ 257 µg/mL) | 4.15 ± 1.32 | 8.12 ± 1.24 | 3.67 ± 0.35 | CC1(C)CC[C@]2(C(=O)O)CC[C@]3(C)C(=CC[C@@H]4[C@@]5(C)CC[C@H](OC(=O)c6ccsc6C(=O)O)C(C)(C)[C@@H]5CC[C@]43C)[C@@H]2C1 [Compound 46] |  | 
6 | 322 (≈ 193 µg/mL) |  |  |  | C#Cc1c(F)ccc2cc(O)cc(-c3ncc4c(N5CC6CCC(C5)N6)nc(OC[C@@]56CCCN5C[C@H](F)C6)nc4c3F)c12 [Compound 53, MRTX1133, reference compound] |  | 
7 | 424 (≈ 272 µg/mL) | 1.33 ± 0.24 | 2.51 ± 0.24 | 2.88 ± 0.89 | CC1(C)CC[C@]2(C(=O)O)CC[C@]3(C)C(=CC[C@@H]4[C@@]5(C)CC[C@H](OC(=O)c6c(F)ccc(F)c6C(=O)O)C(C)(C)[C@@H]5CC[C@]43C)[C@@H]2C1 [Compound 44] |  | 

Second part, the compound before the results:

Row | Compound | solubility (Solubility) [µM] | IC50 (K-RAS4B wild-type) [µM] | IC50 (K-RAS4B G12V) [µM] | IC50 (K-RAS4B^G12D) [µM] | inhibition of GDP/GTP exchange (in words) (K-RAS4B^G12D; [1]) | further results
8 | C=C(C)[C@@H]1CC[C@]2(C(=O)NCCN)CC[C@]3(C)[C@H](CC[C@@H]4[C@@]5(C)CC[C@H](O)C(C)(C)[C@@H]5CC[C@]43C)[C@@H]12 [Compound 17] |  |  |  |  | inactive | 
9 | CC1(C)CC[C@]2(C(=O)O)CC[C@]3(C)C(=CC[C@@H]4[C@@]5(C)CC[C@H](OC(=O)c6cc(F)c(F)cc6C(=O)NO)C(C)(C)[C@@H]5CC[C@]43C)[C@@H]2C1 [Compound 42, oleanoyl 4,5-difluoro-2-(hydroxycarbamoyl)benzo-ate] |  |  |  |  | completely inactive | 
10 | C=C(C)[C@@H]1CC[C@]2(C(=O)NCC(=O)OCC)CC[C@]3(C)[C@H](CC[C@@H]4[C@@]5(C)CC[C@H](O)C(C)(C)[C@@H]5CC[C@]43C)[C@@H]12 [Compound 21] |  |  |  |  |  | inhibition of GDP/GTP exchange (in words) (K-RAS4B^G12D): inactive
11 | COc1cc(C(=O)O)c(C(=O)O[C@H]2CC[C@]3(C)[C@H]4CC=C5[C@@H]6[C@@H](C)[C@H](C)CC[C@]6(C(=O)O)CC[C@@]5(C)[C@]4(C)CC[C@H]3C2(C)C)cc1OC [Compound 38] | 383 (≈ 255 µg/mL) | 53.6 ± 7.3 |  | 55.6 ± 6.5 |  | 
12 | COC(=O)[C@]12CC[C@@H](C(C)C(=O)O)[C@@H]1[C@H]1CC[C@@H]3[C@@]4(C)CC[C@H](OC(C)=O)C(C)(C)[C@@H]4CC[C@@]3(C)[C@]1(C)CC2 (stereo partly shown) [Compound 27] |  |  |  | 13.8 ± 4.2 |  | 
13 | C=C(C)[C@@H]1CC[C@]2(C(=O)O)CC[C@]3(C)[C@H](CC[C@@H]4[C@@]5(C)CC[C@H](O)C(C)(C)[C@@H]5CC[C@]43C)[C@@H]12 [Compound 2, betulinic acid] |  |  |  | > 300 |  | 
14 | CC1(C)CC[C@]2(C(=O)NCCN)CC[C@]3(C)C(=CC[C@@H]4[C@@]5(C)CC[C@H](O)C(C)(C)[C@@H]5CC[C@]43C)[C@@H]2C1 [Compound 40] |  |  |  |  | inactive | 
15 | CC1(C)CC[C@]2(C(=O)NO)CC[C@]3(C)C(=CC[C@@H]4[C@@]5(C)CC[C@H](OC(=O)c6cc(F)c(F)cc6C(=O)O)C(C)(C)[C@@H]5CC[C@]43C)[C@@H]2C1 [Compound 41] |  | 4.68 | 5.47 | 7.61 ± 0.7 |  | 
16 | C=C(C)[C@@H]1CC[C@]2(C(=O)On3nnc4cccnc43)CC[C@]3(C)[C@H](CC[C@@H]4[C@@]5(C)CC[C@H](O)C(C)(C)[C@@H]5CC[C@]43C)[C@@H]12 [Compound 13] |  |  |  |  | inactive | 
17 | COC(=O)c1ccccc1C(=O)O[C@H]1CC[C@]2(C)[C@H]3CC=C4[C@@H]5CC(C)(C)CC[C@]5(C(=O)O)CC[C@@]4(C)[C@]3(C)CC[C@H]2C1(C)C [Compound 48] |  |  |  |  | completely inactive | 
18 | C[C@H]1[C@H](C)CC[C@]2(C(=O)O)CC[C@]3(C)C(=CC[C@@H]4[C@@]5(C)CC[C@H](O)C(C)(C)[C@@H]5CC[C@]43C)[C@H]12 [Compound 4, Ursolic acid] |  |  |  | > 300 |  | 
19 | C=C(C)[C@@H]1CC[C@]2(C(=O)O)CC[C@]3(C)[C@H](CC[C@@H]4[C@@]5(C)CCC(=O)C(C)(C)[C@@H]5CC[C@]43C)[C@@H]12 [Compound 20, betulonic acid] |  |  |  |  | inactive | 
20 | C=C(C)[C@@H]1CC[C@]2(C(=O)O)CC[C@]3(C)[C@H](CC[C@@H]4[C@@]5(C)CC[C@H](OC(C)=O)C(C)(C)[C@@H]5CC[C@]43C)[C@@H]12 [Compound 8] |  |  |  |  | inactive | 
21 | C=C(C)[C@@H]1CC[C@]2(COC(=O)CCC(=O)O)CC[C@]3(C)[C@H](CC[C@@H]4[C@@]5(C)CC[C@H](O)C(C)(C)[C@@H]5CC[C@]43C)[C@@H]12 [Compound 31] |  | 25.6 ± 4.3 | 12.7 ± 5.5 | 10.4 ± 0.8 |  | 
22 | CC1(C)CC[C@]2(C(=O)Nc3nnn[nH]3)CC[C@]3(C)C(=CC[C@@H]4[C@@]5(C)CC[C@H](O)C(C)(C)[C@@H]5CC[C@]43C)[C@@H]2C1 [Compound 39] |  | 12.8 ± 2.9 | 9.18 ± 0.99 | 27.8 ± 2.6 |  | 
23 | CC(C=O)[C@@H]1CC[C@]2(C(=O)O)CC[C@]3(C)[C@H](CC[C@@H]4[C@@]5(C)CC[C@H](OC(=O)c6ccccc6C(=O)O)C(C)(C)[C@@H]5CC[C@]43C)[C@@H]12 (stereo partly shown) [Compound 14] | 447 (≈ 278 µg/mL) | 37.3 ± 19.1 | 51.1 ± 6.2 | 48.5 ± 12.7 |  | solubility (in words) (Solubility): well soluble
24 | C=C(C)[C@@H]1CC[C@]2(C(=O)O)CC[C@]3(C)[C@H](CC[C@@H]4[C@@]5(C)CC[C@H](OC(=O)c6ccccc6)C(C)(C)[C@@H]5CC[C@]43C)[C@@H]12 [Compound 9] |  |  |  |  | inactive | 
25 | C=C(C)[C@@H]1CC[C@]2(CN)CC[C@]3(C)[C@H](CC[C@@H]4[C@@]5(C)CC[C@H](O)C(C)(C)[C@@H]5CC[C@]43C)[C@@H]12 [Compound 35] |  |  |  |  |  | inhibition of GDP/GTP exchange (in words) (K-RAS4B^G12D): inactive
26 | C=C(C)[C@@H]1CC[C@]2(C(=O)O)CC[C@]3(C)[C@H](CC[C@@H]4[C@@]5(C)CC[C@H](OC(=O)c6cc7ccccc7cc6C(=O)O)C(C)(C)[C@@H]5CC[C@]43C)[C@@H]12 [Compound 22] |  |  |  |  |  | inhibition of GDP/GTP exchange (in words) (K-RAS4B^G12D): loss of GDP/GTP exchange inhibition
27 | C=C(C)[C@@H]1CC[C@]2(C(=O)OC)CC[C@]3(C)[C@H](CC[C@@H]4[C@@]5(C)CC[C@H](O)C(C)(C)[C@@H]5CC[C@]43C)[C@@H]12 [Compound 10] |  |  |  |  | inactive | 
28 | C=C(C)[C@@H]1CC[C@]2(C(=O)NCC(=O)O)CC[C@]3(C)[C@H](CC[C@@H]4[C@@]5(C)CC[C@H](O)C(C)(C)[C@@H]5CC[C@]43C)[C@@H]12 [Compound 12] |  |  |  |  | inactive | 
